# Laboratory results taken from US20240358693A1, “METHODS OF TREATING PAIN” (Aisa Pharma, Inc., priority 2023, published 2024).
# Test system: participants with SSc-RP
# Test: Frequency of weekly RP attacks (all attacks; primary efficacy endpoint)
# Assay type: in vivo, human
# Settings: for Weekly RP Attacks (All Attacks) Change from Baseline, Mean / Weekly RP Attacks (All Attacks) Change from Baseline, Median / Weekly RP Attacks (All Attacks) Percent Change from Baseline, Mean / Weekly RP Attacks (All Attacks) Percent Change from Baseline, Median / Weekly RP Attacks (All Attacks), Mean / Weekly RP Attacks (All Attacks), Median: Excluding Outliers, by Baseline RCS, ITT Part A; for Weekly RP Attacks Change from Baseline, Max / Weekly RP Attacks Change from Baseline, Mean (SD) / Weekly RP Attacks Change from Baseline, Median / Weekly RP Attacks Change from Baseline, Min / Weekly RP Attacks Change from Baseline, Q1 / Weekly RP Attacks Change from Baseline, Q3 / Weekly RP Attacks Percent Change from Baseline, Max / Weekly RP Attacks Percent Change from Baseline, Mean (SD) / Weekly RP Attacks Percent Change from Baseline, Median / Weekly RP Attacks Percent Change from Baseline, Min / Weekly RP Attacks Percent Change from Baseline, Q1 / Weekly RP Attacks Percent Change from Baseline, Q3 / Weekly RP Attacks, Max / Weekly RP Attacks, Mean (SD) / Weekly RP Attacks, Median / Weekly RP Attacks, Min / Weekly RP Attacks, Q1 / Weekly RP Attacks, Q3: all attacks, excluding outliers, tadalafil 5 mg daily
# Excerpt: Percent change from baseline evaluation for frequency of weekly RP attacks were or will be used as the primary efficacy variable. The sponsor-developed participant-informed diary will be used to record data. Frequency of weekly RP attacks is defined as the total number of RP attacks divided by the number of days with available diary data within the last 7 days of each dosing period then multiplied by 7. Total number of RP attacks during the last 7 days of screening period divided by the number of days with available data then multiplied by 7 will be used as baseline for the analysis of all periods. The variable will be calculated as follows:
# Percentage change={(weekly RP attacks for the last 7 days of each dosing period−Baseline weekly RP attacks)/Baseline weekly RP attacks}*100%.
# Absolute change=weekly RP attacks for the last 7 days of each dosing period−Baseline weekly RP attacks
# Percent change from baseline evaluation for frequency of weekly RP attacks was and will be the primary efficacy endpoint. Frequency of weekly RP attacks is defined as the total number of RP attacks divided by the number of days with available diary data within the last 7 days of each dosing period then multiplied by 7. Total number of RP attacks during the last 7 days of screening period divided by the number of days with available data then multiplied by 7 will be used as baseline for the analysis of all periods.
# Percent change from baseline evaluation for frequency of weekly RP attacks were the primary efficacy endpoint. Data collected in the last 7 days of each dosing period were used for this analysis. Screening assessments were used as baseline for the analysis of all periods. No multiple comparison adjustment were used to control alpha for the multiple comparisons. Mixed effects model were used for analysis of the primary endpoint according to the crossover design. Other efficacy endpoints of continuous variables were analyzed using similar methodology. For nominal data, chi-square tests were applied. Generalized Estimating Equations method were used, as appropriate, for adjusting for potential confounding factors. In addition, the final analysis assessed whether in this study of severe Raynaud's disease participants, the minimally important difference, previously concluded of 14-15 points on the 100 point RCS scale had been achieved in the cilnidipine dose group. It also recorded the percentage of participants achieving a PASS (34 point difference from baseline on a 0-100 VAS) in each treatment group.
# [1] = Cilnidipine 10 mg, n=1, first subgroup
# [2] = Cilnidipine 20 mg (n=3), subgroup n = 2
# [3] = Cilnidipine 20 mg, n=2, first subgroup
# [4] = Pooled Cilnidipine 10 mg and Cilnidipine 10 mg + Tadalafil 5 mg, n=1, second subgroup
# [5] = Pooled Cilnidipine 10 mg and Cilnidipine 10 mg + Tadalafil 5 mg, n=2, first subgroup
# [6] = Pooled Cilnidipine 20 mg and Cilnidipine 20 mg + Tadalafil 5 mg, n=1, second subgroup
# [7] = Pooled Cilnidipine 20 mg and Cilnidipine 20 mg + Tadalafil 5 mg, n=3, first subgroup
# [8] = Pooled Cilnidipine (n = 7), subgroup n = 2
# [9] = Pooled Cilnidipine, n=3, first subgroup
# [10] = pooled cilnidipine 10 mg and 20 mg
compound,measurement,setting,value
"COCCOC(=O)C1=C(C)NC(C)=C(C(=O)OC/C=C/c2ccccc2)C1c1cccc([N+](=O)[O-])c1 (stereo not drawn) [Cilnidipine, cilnidipine]",reduction in weekly frequency of typical Raynaud attacks,10 mg of cilnidipine (n=3 for both doses),28%
same,reduction in weekly frequency of typical Raynaud attacks,20 mg of cilnidipine (n=3 for both doses),46%
same,"Weekly RP Attacks (All Attacks) Change from Baseline, Mean",[1],−9.00
same,"Weekly RP Attacks (All Attacks) Change from Baseline, Median",[1],−9.00
same,"Weekly RP Attacks (All Attacks) Percent Change from Baseline, Mean",[1],−28.13%
same,"Weekly RP Attacks (All Attacks) Percent Change from Baseline, Median",[1],−28.13%
same,"Weekly RP Attacks (All Attacks), Mean",[1],23.00
same,"Weekly RP Attacks (All Attacks), Median",[1],23.00
same,"Subgroup Baseline RCS, <3.5 baseline","Cilnidipine 20 mg (n=3), subgroup n = 1",<3.5 baseline −42%
same,"Subgroup Baseline RCS, >3.5-7.5 baseline",[2],>3.5-7.5 baseline −43%
same,"Subgroup attack frequency, <10 baseline",[2],<10 baseline −29%
same,"Subgroup attack frequency, >10 baseline",[2],>10 baseline −50%
same,"Weekly RP Attacks (All Attacks) Change from Baseline, Mean",[3],−6.67
same,"Weekly RP Attacks (All Attacks) Change from Baseline, Median",[3],−6.67
same,"Weekly RP Attacks (All Attacks) Percent Change from Baseline, Mean",[3],−45.71%
same,"Weekly RP Attacks (All Attacks) Percent Change from Baseline, Median",[3],−45.71%
same,"Weekly RP Attacks (All Attacks), Mean",[3],8.00
same,"Weekly RP Attacks (All Attacks), Median",[3],8.00
same,Mean % reduction of weekly attacks from baseline,Cilnidipine (20 mg) (n = 3),43%
same,Mean weekly attacks at baseline,Cilnidipine (20 mg) (n = 3),12.7
same,Weekly attack frequency,Cilnidipine (20 mg) (n = 3),−43%
same,"Weekly attack frequency, If baseline RCS <3.5",Cilnidipine (20 mg) (n = 3),−42%
same,"Weekly RP Attacks (All Attacks) Change from Baseline, Mean",[4],−5.00
same,"Weekly RP Attacks (All Attacks) Change from Baseline, Median",[4],−5.00
same,"Weekly RP Attacks (All Attacks) Percent Change from Baseline, Mean",[4],−45.45%
same,"Weekly RP Attacks (All Attacks) Percent Change from Baseline, Median",[4],−45.45%
same,"Weekly RP Attacks (All Attacks), Mean",[4],6.00
same,"Weekly RP Attacks (All Attacks), Median",[4],6.00
same,"Weekly RP Attacks (All Attacks) Change from Baseline, Mean",[5],−6.50
same,"Weekly RP Attacks (All Attacks) Change from Baseline, Median",[5],−6.50
same,"Weekly RP Attacks (All Attacks) Percent Change from Baseline, Mean",[5],−36.28%
same,"Weekly RP Attacks (All Attacks) Percent Change from Baseline, Median",[5],−36.28%
same,"Weekly RP Attacks (All Attacks), Mean",[5],14.00
same,"Weekly RP Attacks (All Attacks), Median",[5],14.00
same,"Weekly RP Attacks (All Attacks) Change from Baseline, Mean",[6],−1.83
same,"Weekly RP Attacks (All Attacks) Change from Baseline, Median",[6],−1.83
same,"Weekly RP Attacks (All Attacks) Percent Change from Baseline, Mean",[6],−14.29%
same,"Weekly RP Attacks (All Attacks) Percent Change from Baseline, Median",[6],−14.29%
same,"Weekly RP Attacks (All Attacks), Mean",[6],11.00
same,"Weekly RP Attacks (All Attacks), Median",[6],11.00
same,"Weekly RP Attacks (All Attacks) Change from Baseline, Mean",[7],−5.78
same,"Weekly RP Attacks (All Attacks) Change from Baseline, Median",[7],−4.33
same,"Weekly RP Attacks (All Attacks) Percent Change from Baseline, Mean",[7],−37.49%
same,"Weekly RP Attacks (All Attacks) Percent Change from Baseline, Median",[7],−45.00%
same,"Weekly RP Attacks (All Attacks), Mean",[7],10.33
same,"Weekly RP Attacks (All Attacks), Median",[7],11.00
same,Weekly attack frequency,Pooled Cilnidipine (n = 7),−41%
same,"Weekly attack frequency, If baseline RCS <3.5",Pooled Cilnidipine (n = 7),−27%
same,"Subgroup Baseline RCS, 3.5-7.5 baseline","Pooled Cilnidipine (n = 7), subgroup n = 1",3.5-7.5 baseline −86%
same,"Subgroup attack frequency, <10 baseline",[8],<10 baseline −55%
same,"Subgroup attack frequency, >10 baseline",[8],>10 baseline −28%
same,"Subgroup Baseline RCS, <3.5 baseline","Pooled Cilnidipine (n = 7), subgroup n = 3",<3.5 baseline −27%
same,"Weekly RP Attacks (All Attacks) Change from Baseline, Mean",[9],−7.44
same,"Weekly RP Attacks (All Attacks) Change from Baseline, Median",[9],−9.00
same,"Weekly RP Attacks (All Attacks) Percent Change from Baseline, Mean",[9],−39.85%
same,"Weekly RP Attacks (All Attacks) Percent Change from Baseline, Median",[9],−45.00%
same,"Weekly RP Attacks (All Attacks), Mean",[9],13.00
same,"Weekly RP Attacks (All Attacks), Median",[9],11.00
same,"Weekly RP Attacks Change from Baseline, Max",cilnidipine 10 mg,"−9.0, −9.0"
same,"Weekly RP Attacks Change from Baseline, Mean (SD)",cilnidipine 10 mg,−9.00
same,"Weekly RP Attacks Change from Baseline, Median",cilnidipine 10 mg,−9.00
same,"Weekly RP Attacks Change from Baseline, Min",cilnidipine 10 mg,"−9.0, −9.0"
same,"Weekly RP Attacks Change from Baseline, Q1",cilnidipine 10 mg,"−9.00, −9.00"
same,"Weekly RP Attacks Change from Baseline, Q3",cilnidipine 10 mg,"−9.00, −9.00"
same,"Weekly RP Attacks Percent Change from Baseline, Max",cilnidipine 10 mg,"−28.1, −28.1%"
same,"Weekly RP Attacks Percent Change from Baseline, Mean (SD)",cilnidipine 10 mg,−28.13%
same,"Weekly RP Attacks Percent Change from Baseline, Median",cilnidipine 10 mg,−28.13%
same,"Weekly RP Attacks Percent Change from Baseline, Min",cilnidipine 10 mg,"−28.1, −28.1%"
same,"Weekly RP Attacks Percent Change from Baseline, Q1",cilnidipine 10 mg,"−28.13, −28.13%"
same,"Weekly RP Attacks Percent Change from Baseline, Q3",cilnidipine 10 mg,"−28.13, −28.13%"
same,"Weekly RP Attacks, Max",cilnidipine 10 mg,"23.0, 23.0"
same,"Weekly RP Attacks, Mean (SD)",cilnidipine 10 mg,23.00
same,"Weekly RP Attacks, Median",cilnidipine 10 mg,23.00
same,"Weekly RP Attacks, Min",cilnidipine 10 mg,"23.0, 23.0"
same,"Weekly RP Attacks, Q1",cilnidipine 10 mg,"23.00, 23.00"
same,"Weekly RP Attacks, Q3",cilnidipine 10 mg,"23.00, 23.00"
same,"Weekly RP Attacks Change from Baseline, Max",cilnidipine 20 mg,−4.3
same,"Weekly RP Attacks Change from Baseline, Mean (SD)",cilnidipine 20 mg,−6.67 (3.300)
same,"Weekly RP Attacks Change from Baseline, Median",cilnidipine 20 mg,−6.67
same,"Weekly RP Attacks Change from Baseline, Min",cilnidipine 20 mg,−9.0
same,"Weekly RP Attacks Change from Baseline, Q1",cilnidipine 20 mg,−9.00
same,"Weekly RP Attacks Change from Baseline, Q3",cilnidipine 20 mg,−4.33
same,"Weekly RP Attacks Percent Change from Baseline, Max",cilnidipine 20 mg,−45.0%
same,"Weekly RP Attacks Percent Change from Baseline, Mean (SD)",cilnidipine 20 mg,−45.71 (1.010) Percent
same,"Weekly RP Attacks Percent Change from Baseline, Median",cilnidipine 20 mg,−45.71%
same,"Weekly RP Attacks Percent Change from Baseline, Min",cilnidipine 20 mg,−46.4%
same,"Weekly RP Attacks Percent Change from Baseline, Q1",cilnidipine 20 mg,−46.43%
same,"Weekly RP Attacks Percent Change from Baseline, Q3",cilnidipine 20 mg,−45.00%
same,"Weekly RP Attacks, Max",cilnidipine 20 mg,11.0
same,"Weekly RP Attacks, Mean (SD)",cilnidipine 20 mg,8.00 (4.243)
same,"Weekly RP Attacks, Median",cilnidipine 20 mg,8.00
same,"Weekly RP Attacks, Min",cilnidipine 20 mg,5.0
same,"Weekly RP Attacks, Q1",cilnidipine 20 mg,5.00
same,"Weekly RP Attacks, Q3",cilnidipine 20 mg,11.00
same,"Weekly RP Attacks Change from Baseline, Max",[10],−4.3
same,"Weekly RP Attacks Change from Baseline, Mean (SD)",[10],−7.44 (2.694)
same,"Weekly RP Attacks Change from Baseline, Median",[10],−9.00
same,"Weekly RP Attacks Change from Baseline, Min",[10],−9.0
same,"Weekly RP Attacks Change from Baseline, Q1",[10],−9.00
same,"Weekly RP Attacks Change from Baseline, Q3",[10],−4.33
same,"Weekly RP Attacks Percent Change from Baseline, Max",[10],−28.1%
same,"Weekly RP Attacks Percent Change from Baseline, Mean (SD)",[10],−39.85 (10.180) Percent
same,"Weekly RP Attacks Percent Change from Baseline, Median",[10],−45.00%
same,"Weekly RP Attacks Percent Change from Baseline, Min",[10],−46.4%
same,"Weekly RP Attacks Percent Change from Baseline, Q1",[10],−46.43%
same,"Weekly RP Attacks Percent Change from Baseline, Q3",[10],−28.13%
same,"Weekly RP Attacks, Max",[10],23.0
same,"Weekly RP Attacks, Mean (SD)",[10],13.00 (9.165)
same,"Weekly RP Attacks, Median",[10],11.00
same,"Weekly RP Attacks, Min",[10],5.0
same,"Weekly RP Attacks, Q1",[10],5.00
